Experimental data reported in patent US20220241378A1, “COMPOSITIONS AND METHODS FOR TREATMENT OF CHRONIC GRANULOMATOUS DISEASE” (priority 2019, published 2022).

Test system: C57BL/6 and p47phox-/- mice infected intranasally with A. fumigatus conidia
Assay: Lung inflammation model: C57BL/6 and p47phox-/- mice infected intranasally with A. fumigatus
Assay type: in vivo
Method: In vivo models mimicking human pathology such as lung and gut inflammation were prepared. A model of lung inflammation was tested using C57BL/6 and p47phox-/- mice. The mice were infected with A. fumigatus intranasally and treated them with Tβ4 for 7 consecutive days starting a week after the infection. LC3-II (FIG. 1F) and DAPK1 (FIG. 1G) expression were both defective in p47phox-/- mice, but restored by Tβ4 and ablated (LC3-II) upon siTβ4 (FIGS. 10A and 10B). In addition, gut inflammation was tested using the same mouse model. Acute colitis in p47phox-/- mice was initiated by administering […] in drinking water for 7 days followed by 7 days of DSS-free autoclaved water. Subsequently, Tβ4 was therapeutically administered daily for 7 days, after DSS treatment, at the time at which mice started to lose weight. Consistent with previous findings (de Luca et al., 2014), LC3-II (FIG. 1H) and DAPK1 (FIG. 1I) expression were both defective in the colon ofp47phox-/- mice with colitis as opposed to WT mice but restored upon treatment with T134 (FIGS. 1H and 1I). DAPK1 expression in colon lysates of C57BL/6 and p47^phox-/- mice subjected to DSS-induced colitis for a week and treated intraperitoneally with 5 mg/kg Tβ4 for 7 consecutive days after DSS treatment, n=6-10 mice per group. Data are presented as mean ±SD and are representative of two experiments. Mice were categorized as Naive (uninfected or untreated mice) or None (infected mice). For immunoblotting, normalization was performed on mouse β-actin or Gapdh and corresponding pixel density or ratio is depicted. For immunofluorescence, nuclei were counterstained with DAPI. Photographs were taken with a high-resolution microscope (Olympus BX51), 40× and 100× magnification. LC3 mean fluorescence intensity (MFI) was measured with the ImageJ software. In FIGS. 1F-1H, n=6-10 mice per group. Data are presented as mean ±SD and are representative of two experiments. Naïve, uninfected or untreated mice. None, infected mice.
Viable conidia from the A. fumigatus Af293 strain were obtained as described (De Luca et al., 2012). Mice were anesthetized in a plastic cage by inhalation of 3% isoflurane (Forane Abbot) in oxygen before intranasal instillation of 2×10^7 resting conidia/20 μl saline. For survival curves, p47^phox-/- mice were challenged with […] conidia/20 μl saline. Tβ4 was administered intraperitoneally (i.p.) at the dose of 5 mg/kg at an effective dose as described (Badamchian et al., Thymosin beta(4) reduces lethality and down-regulates inflammatory mediators in endotoxin-induced septic shock. Int Immunopharmacol, 2003 3(8): p. 1225-33), every day in concomitance with (days 0→7) or after (days 7→14) infection. DMOG (Merck Millipore) was administered i.p. at the dose of 8 mg/mouse concomitantly to the infection. For Hif1a silencing, each mouse received intranasal administration of 10 mg/kg unmodified siRNA [Duplex name mm.Ri.Hif1a.13.1 (IDT); 5′-[…]-3′; 3′-[…] -5′] and Tmsb4x silencing [Duplex name mm.Ri.Tmsb4x.13.1; 5′-[…]-3′; 3′-[…] -5′], or equivalent dose of nonspecific control siRNA duplex in a volume of 20 μl of duplex buffer (IDT). Intranasal siRNA was given once the day before infection and 1, 3 and 5 days after infection (Iannitti et al., 2013 Hypoxia promotes danger-mediated inflammation via receptor for advanced glycation end products in cystic fibrosis. Am J Respir Crit Care Med 188:1338-1350). It is known that lung-specific siRNA delivery can be achieved by intranasal administration without the use of viral vectors or transfection agents in vivo (Iannitti et al., 2013 Th17/Treg imbalance in murine cystic fibrosis is linked to indoleamine 2,3-dioxygenase deficiency but corrected by kynurenines. Am J Respir Crit Care Med 187:609-620). Mice were sacrificed 7 or 14 days post infection. Fungal burden was determined by qPCR and expressed as conidial equivalents (CE). Lung tissue was aseptically removed and homogenized in 3 ml of sterile saline. […]

[1] = following Tβ4 treatment, thoracic lymph nodes, lung homogenates
[2] = lung homogenates, ELISA (FIG. 4E)

Thymosin β4 [Tβ4]
HIF-1α protein in lung (CGD (p47phox-/-) mice, Tβ4 7 days concomitantly to infection (FIG. 2E, 2F)): restored
fungal growth in the lung (both types of mice (C57BL/6 and p47phox-/-), 5 mg/kg i.p. (FIG. 4A)): reduced
pathogenic Th2/Th17/Th9 cell responses [1]: down-regulated
protective Th1/Treg cell responses [1]: promoted
NLRP3 expression in lung (infected mice (FIG. 4D)): down-regulated
IFNy production [2]: reduced
IL-1β production [2]: reduced
IL-17A production [2]: reduced
TNF-α production [2]: reduced
expression of genes of angiogenic signaling (Angpt2, Tie2, Vegfa), remodeling (Fgf2), hormonal regulation (Epo), cell migration (Cxcr4) (lungs of Aspergillus-infected mice (FIG. 3C)): upregulated
gross lung pathology and histological examination (p47phox-/- mice after Tβ4 administration (FIG. 4C)): No signs of inflammatory lung injury and granuloma formation
HIF-1α-dependent glycolytic genes (p47phox-/- mice, 5 mg/kg Tβ4 (FIG. 8A)): not increased
Irg1 expression (p47phox-/- mice, 5 mg/kg Tβ4 (FIG. 8B)): increased
LC3-II expression in lung (p47phox-/- mice, 5 mg/kg i.p. 7 consecutive days starting a week after infection (FIG. 1F)): restored
DAPK1 expression in lung (p47phox-/- mice, 5 mg/kg i.p. 7 consecutive days starting a week after infection (FIG. 1G)): restored
